What was measured:
Assay in all cases: relative viability (nuclei count vs DMSO), 5 days (fraction); higher = more cells survive
KIN001-266 = compound: CCN1CCC(CC1)N2C=C(N=N2)CNC3=CC4=C(C(=CN=C4C(=C3)Cl)C#N)NC5=CC(=C(C=C5)F)Cl [KIN001-266]
In short: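 Viability here means nuclei in treated wells divided by nuclei in vehicle wells, reported as the median across plates. Only plates with control CV below 25% and at least one doubling passed. Lung cancer cell lines in 1536-well plates were exposed to five √10-spaced library-drug doses for 5 days and counted from 4× Hoechst images in MetaXpress.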

KIN001-266 + Foretinib = compound: CCN1CCC(CC1)N2C=C(N=N2)CNC3=CC4=C(C(=CN=C4C(=C3)Cl)C#N)NC5=CC(=C(C=C5)F)Cl [KIN001-266] + COc1cc2c(Oc3ccc(NC(=O)C4(C(=O)Nc5ccc(F)cc5)CC4)cc3F)ccnc2cc1OCCCN1CCOCC1 [Foretinib] (partner 0.25 µM)
In short: (§1)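 Five library-drug doses in √10 steps were combined with a fixed anchor-drug dose, or a single drug was given alone, by pin tool to lung cancer cell lines in 1536-well plates the day after seeding. Nuclei were stained and counted after 5 days. Relative viability is the nuclei count in treated wells over that in vehicle wells, taken as the median of duplicate plates.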

KIN001-266 + OSI-027 = compound: CCN1CCC(CC1)N2C=C(N=N2)CNC3=CC4=C(C(=CN=C4C(=C3)Cl)C#N)NC5=CC(=C(C=C5)F)Cl [KIN001-266] + COc1cccc2cc(-c3nc([C@H]4CC[C@H](C(=O)O)CC4)n4ncnc(N)c34)[nH]c12 [OSI-027] (partner 0.5 µM)
In short: as §1

KIN001-266 + Palbociclib = compound: CCN1CCC(CC1)N2C=C(N=N2)CNC3=CC4=C(C(=CN=C4C(=C3)Cl)C#N)NC5=CC(=C(C=C5)F)Cl [KIN001-266] + CC(=O)c1c(C)c2cnc(Nc3ccc(N4CCNCC4)cn3)nc2n(C2CCCC2)c1=O [Palbociclib] (partner 0.5 µM)
In short: as §1

Cell Line | relative viability (KIN001-266; 0.08 µM) | relative viability (KIN001-266; 0.253 µM) | relative viability (KIN001-266; 0.8 µM) | relative viability (KIN001-266; 2.53 µM) | relative viability (KIN001-266; 8 µM) | relative viability (KIN001-266 + Foretinib; first compound 0.08 µM) | relative viability (KIN001-266 + Foretinib; first compound 0.253 µM) | relative viability (KIN001-266 + Foretinib; first compound 0.8 µM) | relative viability (KIN001-266 + Foretinib; first compound 2.53 µM) | relative viability (KIN001-266 + Foretinib; first compound 8 µM) | relative viability (KIN001-266 + OSI-027; first compound 0.08 µM) | relative viability (KIN001-266 + OSI-027; first compound 0.253 µM) | relative viability (KIN001-266 + OSI-027; first compound 0.8 µM) | relative viability (KIN001-266 + OSI-027; first compound 2.53 µM) | relative viability (KIN001-266 + OSI-027; first compound 8 µM) | relative viability (KIN001-266 + Palbociclib; first compound 0.08 µM) | relative viability (KIN001-266 + Palbociclib; first compound 0.253 µM) | relative viability (KIN001-266 + Palbociclib; first compound 0.8 µM) | relative viability (KIN001-266 + Palbociclib; first compound 2.53 µM) | relative viability (KIN001-266 + Palbociclib; first compound 8 µM)
RERF-LC-KJ | 1.05 | 1.04 | 0.975 | 0.992 | 0.726 | 0.882 | 0.873 | 0.837 | 0.837 | 0.757 | 0.645 | 0.614 | 0.519 | 0.498 | 0.351 | 1.14 | 1.07 | 1.13 | 1.11 | 0.83
SK-LU-1 | 1.09 | 1 | 0.987 | 0.886 | 0.709 | 0.844 | 0.824 | 0.84 | 0.814 | 0.486 | 0.358 | 0.307 | 0.403 | 0.346 | 0.26 | 0.393 | 0.381 | 0.421 | 0.373 | 0.339
SK-MES-1 | 1.02 | 1.02 | 0.992 | 0.942 | 0.783 | 0.845 | 0.884 | 0.828 | 0.885 | 0.828 | 0.694 | 0.676 | 0.575 | 0.573 | 0.474 | 0.331 | 0.352 | 0.28 | 0.336 | 0.316
SW 900 | 1.02 | 0.873 | 0.777 | 0.848 | 0.624 | 1.08 | 0.987 | 0.908 | 0.835 | 0.697 | 0.738 | 0.366 | 0.551 | 0.485 | 0.325 | 0.558 | 0.498 | 0.611 | 0.555 | 0.268
SW 1573 | 1.07 | 0.899 | 1.04 | 0.924 | 0.689 | 0.989 | 0.787 | 1.02 | 0.915 | 0.855 | 0.778 | 0.627 | 0.616 | 0.515 | 0.513 | 0.39 | 0.376 | 0.457 | 0.426 | 0.356
UMC-11 | 0.975 | 0.981 | 1 | 0.918 | 0.857 | 1.08 | 1.07 | 1.12 | 0.945 | 0.684 | 0.426 | 0.485 | 0.511 | 0.455 | 0.367 | 0.293 | 0.338 | 0.304 | 0.329 | 0.391

Reference: the supplement of paper PMC10307832
